Experimental findings from ChEMBL document CHEMBL5113372, “Paradigm shift of "classical" HDAC inhibitors to "hybrid" HDAC inhibitors in therapeutic interventions” (Eur J Med Chem, 2021) are described below.

The target in assay [1] is T1, Histone deacetylase 1 (Homo sapiens, UniProt Q13547). The experiment in a line: Inhibition of recombinant human HDAC1 expressed in baculovirus infected Hi-5 insect cells using Ac-Lys-Tyr-Lys (epsilon-acetyl)-AMC as substrate incubated for 3 to 24 hrs by fluorescence based plate reader analysis.
T1 sequence (Q13547 whole entry): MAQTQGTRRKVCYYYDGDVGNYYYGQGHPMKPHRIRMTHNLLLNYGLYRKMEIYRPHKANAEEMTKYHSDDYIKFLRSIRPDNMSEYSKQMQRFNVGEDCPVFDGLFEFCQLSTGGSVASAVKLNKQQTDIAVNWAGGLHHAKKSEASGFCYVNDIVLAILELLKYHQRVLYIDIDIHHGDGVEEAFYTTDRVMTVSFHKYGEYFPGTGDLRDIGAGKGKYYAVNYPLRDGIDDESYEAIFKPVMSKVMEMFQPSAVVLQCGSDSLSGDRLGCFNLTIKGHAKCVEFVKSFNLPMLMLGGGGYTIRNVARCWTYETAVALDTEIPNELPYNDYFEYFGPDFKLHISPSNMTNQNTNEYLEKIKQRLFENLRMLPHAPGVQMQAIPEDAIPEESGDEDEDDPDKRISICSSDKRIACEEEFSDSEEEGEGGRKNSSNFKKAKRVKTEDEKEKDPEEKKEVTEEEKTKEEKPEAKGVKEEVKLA
In assay [2] the target is T2, Histone deacetylase 2 (Homo sapiens, UniProt Q92769). The experiment in a line: Inhibition of recombinant human HDAC2 expressed in baculovirus infected Hi-5 insect cells using Ac-Lys-Tyr-Lys (epsilon-acetyl)-AMC as substrate incubated for 3 to 24 hrs by fluorescence based plate reader analysis.
T2 sequence (Q92769 whole entry): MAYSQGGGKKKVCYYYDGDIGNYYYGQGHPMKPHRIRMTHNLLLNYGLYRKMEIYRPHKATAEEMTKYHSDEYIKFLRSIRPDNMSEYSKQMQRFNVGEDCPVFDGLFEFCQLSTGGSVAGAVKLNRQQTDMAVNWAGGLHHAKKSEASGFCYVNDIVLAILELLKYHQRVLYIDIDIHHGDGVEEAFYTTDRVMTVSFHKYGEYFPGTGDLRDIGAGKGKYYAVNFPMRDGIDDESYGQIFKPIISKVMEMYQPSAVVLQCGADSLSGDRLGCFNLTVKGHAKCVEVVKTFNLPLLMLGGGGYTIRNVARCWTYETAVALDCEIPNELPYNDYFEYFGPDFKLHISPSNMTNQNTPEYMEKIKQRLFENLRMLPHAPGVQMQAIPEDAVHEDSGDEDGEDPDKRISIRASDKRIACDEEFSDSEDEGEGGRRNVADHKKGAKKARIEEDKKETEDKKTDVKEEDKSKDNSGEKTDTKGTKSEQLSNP
Assay [3] deals with A549. The experiment in a line: Cytotoxicity against human A549 cells assessed as inhibition of cell proliferation incubated for 72 hrs by MTT assay. The format is functional, cell-based. Particulars: A549, 72 h.
Assay [4] concerns the target T3, Histone deacetylase 3 (Homo sapiens, UniProt O15379). The experiment in a line: Inhibition of recombinant human HDAC3 expressed in baculovirus infected Hi-5 insect cells using Ac-Lys-Tyr-Lys (epsilon-acetyl)-AMC as substrate incubated for 3 to 24 hrs by fluorescence based plate reader analysis.
In assay [5] the test system is HCT-116. The experiment in a line: Cytotoxicity against human HCT-116 cells assessed as inhibition of cell proliferation incubated for 72 hrs by MTT assay. The format is functional, cell-based. The note with it: HCT-116, 72 h.
The target in assay [6] is T1, Histone deacetylase 1. The experiment in a line: Inhibition of full-length recombinant human HDAC1 expressed in baculovirus infected Hi-5 insect cells using AcLys-Tyr-Lys(e-acetyl)-AMC as substrate incubated for 24 hrs by enzymatic assay.
For assay [7], the system named is K562. The experiment in a line: Antiproliferative activity against human K562 cells assessed as cell growth inhibition incubated for 48 hrs by MTT assay. The class given is functional, cell-based. Particulars: K562, 48 h. A general note: Formazan colour is commonly taken as a measure of viable cells.
Assay [8] concerns DU-145. The experiment in a line: Antiproliferative activity against human DU-145 cells assessed as cell growth inhibition incubated for 48 hrs by MTT assay. The format is functional, cell-based. Particulars: DU-145, 48 h.
Assay [9] deals with HepG2. The experiment in a line: Antiproliferative activity against human HepG2 cells assessed as cell growth inhibition incubated for 48 hrs by MTT assay. The class given is functional, cell-based. The note with it: HepG2, 48 h.
For assay [10], the target named is Protein kinase C alpha type (Mus musculus, UniProt P20444). The experiment in a line: Binding affinity to mouse PKC-alpha assessed as inhibition constant.
For assay [11], the target named is T1, Histone deacetylase 1. The experiment in a line: Inhibition of HDAC1 (unknown origin).
Assay [12] has as its target T4, Protein deacetylase HDAC6 (Homo sapiens, UniProt Q9UBN7).
T4 sequence (Q9UBN7 whole entry): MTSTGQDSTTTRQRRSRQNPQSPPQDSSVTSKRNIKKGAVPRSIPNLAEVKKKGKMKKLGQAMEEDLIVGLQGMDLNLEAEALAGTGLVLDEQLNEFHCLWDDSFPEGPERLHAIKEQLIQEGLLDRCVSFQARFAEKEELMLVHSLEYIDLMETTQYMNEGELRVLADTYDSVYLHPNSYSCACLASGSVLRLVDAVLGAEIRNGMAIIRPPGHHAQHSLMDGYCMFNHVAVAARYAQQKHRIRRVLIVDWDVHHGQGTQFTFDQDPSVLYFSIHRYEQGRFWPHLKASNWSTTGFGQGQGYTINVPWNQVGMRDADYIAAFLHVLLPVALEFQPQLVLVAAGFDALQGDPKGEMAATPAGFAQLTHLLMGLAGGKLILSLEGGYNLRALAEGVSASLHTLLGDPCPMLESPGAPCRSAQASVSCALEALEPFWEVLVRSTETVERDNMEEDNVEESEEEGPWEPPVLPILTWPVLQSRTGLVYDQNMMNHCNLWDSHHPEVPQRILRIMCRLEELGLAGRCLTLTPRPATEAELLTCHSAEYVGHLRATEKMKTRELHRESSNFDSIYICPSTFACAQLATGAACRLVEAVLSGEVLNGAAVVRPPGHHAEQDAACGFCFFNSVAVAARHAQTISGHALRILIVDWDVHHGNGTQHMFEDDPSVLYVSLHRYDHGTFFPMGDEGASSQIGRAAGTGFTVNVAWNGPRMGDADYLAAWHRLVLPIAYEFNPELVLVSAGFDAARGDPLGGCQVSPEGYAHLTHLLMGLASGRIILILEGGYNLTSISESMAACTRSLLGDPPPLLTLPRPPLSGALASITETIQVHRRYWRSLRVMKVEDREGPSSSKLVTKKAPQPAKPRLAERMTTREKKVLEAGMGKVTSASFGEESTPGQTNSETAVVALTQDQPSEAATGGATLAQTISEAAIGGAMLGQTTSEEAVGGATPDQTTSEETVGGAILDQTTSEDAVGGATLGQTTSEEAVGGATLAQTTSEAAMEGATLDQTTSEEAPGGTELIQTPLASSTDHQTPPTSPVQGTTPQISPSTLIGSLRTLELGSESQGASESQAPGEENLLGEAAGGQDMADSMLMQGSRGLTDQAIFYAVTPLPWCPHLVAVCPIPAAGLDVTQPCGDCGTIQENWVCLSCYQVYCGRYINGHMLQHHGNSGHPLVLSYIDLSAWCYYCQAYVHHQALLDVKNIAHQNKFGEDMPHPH
The experiment in a line: Inhibition of HDAC6 (unknown origin).

Assay [13] has as its system Cortical neurone. The experiment in a line: Neuroprotective activity against glutamate-induced mouse primary cortical neurons assessed as neuronal viability incubated for 24 hrs by MTT assay. The format is functional, cell-based.
Assay [14] deals with Protein-glutamine gamma-glutamyltransferase (Homo sapiens, UniProt P21980). The experiment in a line: Inhibition of recombinant human TG2 using N-Cbz-Glu(gamma-p-nitrophenylester) as substrate measured for 10 mins by absorbance based microplate reader analysis.
Assay [15] concerns the target High affinity cGMP-specific 3',5'-cyclic phosphodiesterase 9A (Homo sapiens, UniProt O76083). The experiment in a line: Inhibition of PDE9 (unknown origin).
The target in assay [16] is T2, Histone deacetylase 2. The experiment in a line: Inhibition of HDAC2 (unknown origin).
A short description of assay [17]: Inhibition of PDE5 (unknown origin). Also on record: species or system Homo sapiens.
In assay [18] the target is T5, Histone deacetylase 8 (Homo sapiens, UniProt Q9BY41).
T5 sequence (Q9BY41 whole entry): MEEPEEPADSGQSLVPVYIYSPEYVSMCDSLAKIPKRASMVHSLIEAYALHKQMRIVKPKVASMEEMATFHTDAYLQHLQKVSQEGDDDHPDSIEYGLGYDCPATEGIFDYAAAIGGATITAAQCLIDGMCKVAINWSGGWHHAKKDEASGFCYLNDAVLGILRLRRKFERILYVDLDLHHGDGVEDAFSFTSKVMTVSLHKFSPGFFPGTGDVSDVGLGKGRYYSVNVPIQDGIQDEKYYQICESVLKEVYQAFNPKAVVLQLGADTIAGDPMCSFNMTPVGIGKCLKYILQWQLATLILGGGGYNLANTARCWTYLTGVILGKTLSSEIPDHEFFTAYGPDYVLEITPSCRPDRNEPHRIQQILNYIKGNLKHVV
The experiment in a line: Inhibition of recombinant human HDAC8 using Fluor-de-lys substrate by fluorescence based microplate reader analysis.

For assay [19], the target named is 72 kDa type IV collagenase (Homo sapiens, UniProt P08253). The experiment in a line: Inhibition of MMP2 (unknown origin) using chromogenic substrate incubated for 1 hr followed by substrate addition measured for 30 mins by microplate photometry.
Assay [20] concerns Panel NCI-60 (60 carcinoma cell lines). The experiment in a line: Cytotoxicity against human Panel NCI-60 (60 carcinoma cell lines) cells assessed as cell growth inhibition. The class given is functional, cell-based.
Assay [21] has as its target T3, Histone deacetylase 3. The experiment in a line: Inhibition of HDAC3 (unknown origin).
Assay [22] deals with Histone deacetylase 4 (Homo sapiens, UniProt P56524). The experiment in a line: Inhibition of HDAC4 (unknown origin).
Sequence of Histone deacetylase 4 (P56524 whole entry): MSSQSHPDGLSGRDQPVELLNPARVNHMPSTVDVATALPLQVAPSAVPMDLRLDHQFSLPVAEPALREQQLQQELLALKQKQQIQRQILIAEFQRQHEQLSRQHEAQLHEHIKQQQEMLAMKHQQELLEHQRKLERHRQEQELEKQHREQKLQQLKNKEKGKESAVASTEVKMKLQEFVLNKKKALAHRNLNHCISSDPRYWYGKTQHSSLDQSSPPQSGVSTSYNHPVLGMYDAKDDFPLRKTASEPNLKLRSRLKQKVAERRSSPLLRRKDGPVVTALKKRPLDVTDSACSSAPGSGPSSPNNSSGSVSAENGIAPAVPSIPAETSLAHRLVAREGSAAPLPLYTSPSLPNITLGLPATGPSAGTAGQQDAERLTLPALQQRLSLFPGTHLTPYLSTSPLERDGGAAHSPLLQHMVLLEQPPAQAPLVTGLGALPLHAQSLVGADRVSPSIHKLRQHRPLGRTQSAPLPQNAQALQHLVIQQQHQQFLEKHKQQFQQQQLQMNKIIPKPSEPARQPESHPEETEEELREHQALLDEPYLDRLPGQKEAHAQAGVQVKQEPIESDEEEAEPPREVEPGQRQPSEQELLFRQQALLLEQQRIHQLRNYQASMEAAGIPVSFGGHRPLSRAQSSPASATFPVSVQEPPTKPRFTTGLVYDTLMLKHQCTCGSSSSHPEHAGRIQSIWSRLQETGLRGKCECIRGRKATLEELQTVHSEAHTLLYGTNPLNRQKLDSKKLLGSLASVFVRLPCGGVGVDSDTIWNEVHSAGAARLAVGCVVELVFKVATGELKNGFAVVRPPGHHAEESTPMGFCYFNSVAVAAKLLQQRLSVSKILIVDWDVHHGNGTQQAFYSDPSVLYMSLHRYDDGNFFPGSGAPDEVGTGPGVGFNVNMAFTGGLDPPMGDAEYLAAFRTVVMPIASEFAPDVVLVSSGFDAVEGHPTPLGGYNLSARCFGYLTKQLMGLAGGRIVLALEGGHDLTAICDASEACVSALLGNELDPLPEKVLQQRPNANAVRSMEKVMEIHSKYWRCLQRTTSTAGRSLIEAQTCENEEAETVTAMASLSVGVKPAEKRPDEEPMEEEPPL
Assay [23] deals with Histone deacetylase 5 (Homo sapiens, UniProt Q9UQL6). The experiment in a line: Inhibition of HDAC5 (unknown origin).
Sequence of Histone deacetylase 5 (Q9UQL6 whole entry): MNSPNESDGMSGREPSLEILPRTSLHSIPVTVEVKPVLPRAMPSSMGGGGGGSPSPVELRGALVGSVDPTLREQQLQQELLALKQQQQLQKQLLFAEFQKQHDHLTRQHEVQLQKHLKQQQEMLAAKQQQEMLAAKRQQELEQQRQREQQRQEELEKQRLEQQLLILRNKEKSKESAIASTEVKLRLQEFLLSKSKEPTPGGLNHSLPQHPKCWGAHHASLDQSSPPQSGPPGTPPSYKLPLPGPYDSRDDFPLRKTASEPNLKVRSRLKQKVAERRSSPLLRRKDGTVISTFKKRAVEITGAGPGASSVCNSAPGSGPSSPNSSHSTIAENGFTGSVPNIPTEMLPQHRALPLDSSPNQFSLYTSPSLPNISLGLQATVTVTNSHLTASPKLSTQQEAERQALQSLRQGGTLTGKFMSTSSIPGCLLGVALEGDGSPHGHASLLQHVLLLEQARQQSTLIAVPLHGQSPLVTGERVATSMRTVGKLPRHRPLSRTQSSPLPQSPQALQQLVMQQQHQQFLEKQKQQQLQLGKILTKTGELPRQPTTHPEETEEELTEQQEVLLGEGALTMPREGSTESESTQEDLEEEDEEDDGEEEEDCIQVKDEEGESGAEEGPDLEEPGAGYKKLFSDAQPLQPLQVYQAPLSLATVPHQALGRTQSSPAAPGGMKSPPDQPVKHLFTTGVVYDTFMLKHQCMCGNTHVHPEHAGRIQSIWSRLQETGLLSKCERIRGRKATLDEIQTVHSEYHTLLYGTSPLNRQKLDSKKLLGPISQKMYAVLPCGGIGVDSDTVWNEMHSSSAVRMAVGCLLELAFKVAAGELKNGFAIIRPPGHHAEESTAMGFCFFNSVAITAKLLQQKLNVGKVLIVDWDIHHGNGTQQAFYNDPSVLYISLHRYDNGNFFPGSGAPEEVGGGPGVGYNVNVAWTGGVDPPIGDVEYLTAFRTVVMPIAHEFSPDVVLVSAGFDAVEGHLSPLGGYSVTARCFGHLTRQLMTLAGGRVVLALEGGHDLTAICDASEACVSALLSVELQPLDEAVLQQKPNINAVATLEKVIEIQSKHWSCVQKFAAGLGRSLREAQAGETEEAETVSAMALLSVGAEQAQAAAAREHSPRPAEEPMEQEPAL
Assay [24] has as its system DU-145. The experiment in a line: Cytotoxicity against human DU-145 cells assessed as cell growth inhibition. The format is functional, cell-based.
Assay [25] deals with T5, Histone deacetylase 8. The experiment in a line: Inhibition of HDAC8 (unknown origin).
Assay [26] relates to SMMC-7721. The experiment in a line: cells. The format is functional, cell-based. The note with it: Homo sapiens, SMMC-7721, 48 h.

Some results are limits rather than exact numbers.

Sequence of High affinity cGMP-specific 3',5'-cyclic phosphodiesterase 9A (O76083 whole entry): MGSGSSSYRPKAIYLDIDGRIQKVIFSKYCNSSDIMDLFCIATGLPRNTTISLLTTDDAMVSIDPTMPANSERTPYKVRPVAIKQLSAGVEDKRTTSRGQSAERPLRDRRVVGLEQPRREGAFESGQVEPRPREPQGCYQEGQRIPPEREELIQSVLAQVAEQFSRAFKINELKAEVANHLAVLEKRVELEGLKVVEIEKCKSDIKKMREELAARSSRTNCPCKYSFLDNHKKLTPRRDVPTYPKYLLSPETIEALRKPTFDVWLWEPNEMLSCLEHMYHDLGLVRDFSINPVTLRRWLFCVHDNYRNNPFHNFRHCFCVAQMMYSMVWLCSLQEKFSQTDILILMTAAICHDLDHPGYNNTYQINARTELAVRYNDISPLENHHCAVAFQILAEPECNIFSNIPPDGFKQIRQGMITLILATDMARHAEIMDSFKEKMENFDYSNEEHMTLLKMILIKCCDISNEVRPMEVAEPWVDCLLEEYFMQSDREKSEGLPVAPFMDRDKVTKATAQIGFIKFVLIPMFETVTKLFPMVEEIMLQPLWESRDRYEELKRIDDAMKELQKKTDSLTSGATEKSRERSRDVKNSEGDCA
T3 sequence (O15379 whole entry): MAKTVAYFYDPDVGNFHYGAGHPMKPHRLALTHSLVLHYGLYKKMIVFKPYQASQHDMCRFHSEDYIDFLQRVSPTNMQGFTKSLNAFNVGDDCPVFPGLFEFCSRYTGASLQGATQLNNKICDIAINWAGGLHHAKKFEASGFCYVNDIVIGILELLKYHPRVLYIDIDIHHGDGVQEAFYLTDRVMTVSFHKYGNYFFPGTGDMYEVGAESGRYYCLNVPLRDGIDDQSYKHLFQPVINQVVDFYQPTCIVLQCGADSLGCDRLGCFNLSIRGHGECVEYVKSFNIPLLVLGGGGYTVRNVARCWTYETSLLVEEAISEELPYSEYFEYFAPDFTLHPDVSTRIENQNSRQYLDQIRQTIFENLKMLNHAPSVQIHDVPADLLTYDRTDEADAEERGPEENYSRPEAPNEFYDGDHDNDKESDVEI

Take `COc1cc([C@@H]2c3cc4c(cc3C[C@H]3COC(=O)[C@@H]32)OCO4)cc(OC)c1OC(=O)CC(=O)NCc1ccc(C(=O)Nc2ccccc2N)cc1`: the IC50 in assay [1] was 11100 nM; in assay [2] it was 1730 nM; in assay [3], 36 nM; in assay [4] it was 1000 nM; in assay [5] it was 37 nM.

As to `CCN1CCN(c2cc(Nc3ncc(C(=O)Nc4ccc(F)cc4N)s3)ncn2)CC1`, the IC50 worked out at 810 nM in assay [6], 2260 nM in assay [7], 600 nM in assay [8] and 10400 nM in assay [9].

For `CC(=O)SCCCCCCOc1ccc2c(c1)N(C)[C@@H](C(C)C)C(=O)N[C@H](CO)C2`, the inhibitory constant (Ki) in assay [10] was determined as 8.7 nM.

On to `O=C(CCCCNC(=S)Nc1ccc(/C=C/C(=O)c2cccnc2)cc1)NO`, for which the half-inhibitory concentration (IC50) in assay [11] amounted to 3380 nM; in assay [12], 4100 nM; in [14], 13300 nM. Further, in assay [13], the concentration giving a half-maximal response (EC50) came to 3700 nM.

For the molecule `C[C@H]1CN(Cc2ccc(C(=O)NO)cc2)C[C@@H]1c1nc2c(cnn2C2CCCC2)c(=O)[nH]1`, the half-inhibitory concentration (IC50) was 107 nM in assay [15]; 3530 nM in assay [16]; 593 nM in assay [11]; 40 nM in assay [12]; greater than 10000 nM in [17].

For the molecule `C[C@@H](c1nc2c(cnn2C2CCCC2)c(=O)[nH]1)N1CC(Cc2ccc(C(=O)Nc3ccccc3N)cc2)C1`, the IC50 in assay [15] was 57 nM; in [16], 545 nM; in [11] it was 99 nM; in [12], greater than 10000 nM; in [17], greater than 10000 nM.

In the case of `COc1ccc(CC(=O)N[C@@H](CCC(=O)O)C(=O)NCc2ccccc2)cc1`, the IC50 stood at 3800 nM in [18] and 83700 nM in assay [19].

In the case of `Cn1c(CCCC(=O)O)nc2cc(N(CCCl)CCCl)ccc21` [BENDAMUSTINE], the IC50 is 2200 nM in assay [20]; 10 nM in [21]; 10 nM in [16]; 10 nM in assay [22]; 10 nM in assay [11]; 10 nM in assay [23]. In assay [12], this molecule displayed a 50% inhibitory concentration (IC50) of 10 nM.

Turning to `COc1cccc2c1C(=O)c1c(O)c3c(c(O)c1C2=O)C[C@@](O)(C(C)=O)C[C@@H]3O[C@H]1C[C@H](N)[C@H](O)[C@H](C)O1` [DAUNORUBICIN], the half-maximal inhibitory concentration (IC50) in assay [24] was determined as 130 nM; in assay [11] it was 47 nM; in assay [12], 20 nM; in [25], 220 nM.

Consider `CC(C)=CCC/C(C)=C/CC/C(C)=C/CSc1ccccc1C(=O)O` [SALIRASIB], for which, in [26], the IC50 worked out at 6700 nM.

Broadly, the IC50 is the concentration that gives 50% inhibition. The Ki is a dissociation constant, usually derived from enzyme kinetics or from competition with a known ligand. One may read the EC50 as the concentration giving half of the maximal effect.
